From publication PMC5415848, “Structural basis of molecular recognition of helical histone H3 tail by PHD finger domains” (Biochemical Journal, 2017)
Numbering of substitutions follows the chain as printed. Like-named read-outs stand apart in the source and are kept apart here. Residues, ends and D or L forms follow the SMILES beside them. No end group written: not given here.

How the values were obtained:
Assay type in all cases: binding
BAZ2A PHD = molecular target: T1, BAZ2A PHD (Homo sapiens, UniProt Q9UIF9); experiment: ITC, H3 peptides titrated into BAZ2A PHD (WT); conditions: for effect on binding, in words: compared with H3 10-mer WT or the peptide named in the words
T1 construct: The small PHDs (∼6.5 kDa) of both BAZ2A and BAZ2B; made in house
T1 sequence (Q9UIF9 1676-1726 limits assumed): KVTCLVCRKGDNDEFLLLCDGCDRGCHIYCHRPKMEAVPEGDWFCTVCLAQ
Description: (§1) All calorimetric experiments were performed on a MicroCal iTC200 microcalorimeter (GE Healthcare) at 25°C in a buffer containing 20 mM HEPES at a pH of 8, 150 mM NaCl and 0.5 mM Tris(2-carboxyethyl) phosphine. All ITC experiments were carried out titrating peptide solutions (1.5–3 mM) into protein solutions (80–120 µM) loaded in the calorimeter cell, performing one first injection of 0.4 µl followed by 19 injections of 2 µl. The data were analyzed using the MicroCal™ software package subtracting the data from an independent titration of peptide into buffer to account for heat of dilution, and then fitted using a single-binding site model. Protein concentration was determined by measuring absorbance at 280 nm using the following extinction coefficients: BAZ2A PHD ε280 = 6990 M^−1 cm^−1 and BAZ2B PHD ε280 = 8480 M^−1 cm^−1. Lyophilized peptides were weighted and dissolved in an appropriate volume of buffer to obtain the desired concentration.

BAZ2B PHD = molecular target: T2, BAZ2B PHD (Homo sapiens, UniProt Q9UIF8); experiment: ITC, H3 peptides titrated into BAZ2B PHD (WT); conditions: for effect on binding, in words: compared with H3 10-mer WT
T2 construct: The small PHDs (∼6.5 kDa) of both BAZ2A and BAZ2B; made in house
T2 sequence (Q9UIF8 1931-1981 limits assumed): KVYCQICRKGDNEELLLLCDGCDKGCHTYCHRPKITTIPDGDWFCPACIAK
Description: as §1

BAZ2B PHD E1944Q = molecular target: T3, BAZ2B PHD E1944Q (Homo sapiens, UniProt Q9UIF8, E1944Q); experiment: ITC, H3 10-mer into BAZ2B PHD E1944Q mutant; conditions: ITC 25°C, triplicate, mean ± s.e.m.; N fixed to 1 in fit; SEM
T3 construct: Mutations were introduced into BAZ2A/B PHD fingers by polymerase chain reaction (PCR) amplification of the original construct; made in house
T3 sequence (Q9UIF8 1931-1981 E1944Q limits assumed): T2 sequence (Q9UIF8 1931-1981 limits assumed) with E14Q
Description: (§2) Mutations were introduced into BAZ2A/B PHD fingers by polymerase chain reaction (PCR) amplification of the original construct using Phusion DNA Polymerase (Thermo Fisher Scientific) and a specific pair of primers for each mutation (Supplementary Table S4). The PCR amplification product was incubated with Dpn I (New England BioLabs) for 1 h at 37°C to digest the parental DNA strands and then used to transform Escherichia coli DH5α cells. Transformed cells were grown on lysogeny broth (LB) agar plates supplemented with 100 µg/ml ampicillin for 16 h at 37°C. Single colonies were picked to inoculate 5 ml of LB plus 100 µg/ml ampicillin and grown for 16 h at 37°C. […]
(§3) All calorimetric experiments were performed on a MicroCal iTC200 microcalorimeter (GE Healthcare) at 25°C in a buffer containing 20 mM HEPES at a pH of 8, 150 mM NaCl and 0.5 mM Tris(2-carboxyethyl) phosphine. […] The data were analyzed using the MicroCal™ software package subtracting the data from an independent titration of peptide into buffer to account for heat of dilution, and then fitted using a single-binding site model. Protein concentration was determined by measuring absorbance at 280 nm using the following extinction coefficients: BAZ2A PHD ε280 = 6990 M^−1 cm^−1 and BAZ2B PHD ε280 = 8480 M^−1 cm^−1. […]

BAZ2A PHD E1689Q = molecular target: T4, BAZ2A PHD E1689Q (Homo sapiens, UniProt Q9UIF9, E1689Q); experiment: ITC, H3 10-mer into BAZ2A PHD E1689Q mutant; conditions: ITC 25°C, triplicate, mean ± s.e.m.; SEM
T4 construct: Mutations were introduced into BAZ2A/B PHD fingers by polymerase chain reaction (PCR) amplification of the original construct; made in house
T4 sequence (Q9UIF9 1676-1726 E1689Q limits assumed): T1 sequence (Q9UIF9 1676-1726 limits assumed) with E14Q
Description: as §2, §3

BAZ2A PHD E1689K = molecular target: T5, BAZ2A PHD E1689K (Homo sapiens, UniProt Q9UIF9, E1689K); experiment: ITC, H3 10-mer into BAZ2A PHD E1689K mutant; conditions: ITC 25°C, duplicate, mean ± s.e.m.; SEM
T5 construct: Mutations were introduced into BAZ2A/B PHD fingers by polymerase chain reaction (PCR) amplification of the original construct; made in house
T5 sequence (Q9UIF9 1676-1726 E1689K limits assumed): T1 sequence (Q9UIF9 1676-1726 limits assumed) with E14K
Description: as §2, §3

BAZ2B PHD E1944K = molecular target: T6, BAZ2B PHD E1944K (Homo sapiens, UniProt Q9UIF8, E1944K); experiment: ITC, H3 10-mer into BAZ2B PHD E1944K mutant; conditions: ITC 25°C
T6 construct: Mutations were introduced into BAZ2A/B PHD fingers by polymerase chain reaction (PCR) amplification of the original construct; made in house
T6 sequence (Q9UIF8 1931-1981 E1944K limits assumed): T2 sequence (Q9UIF8 1931-1981 limits assumed) with E14K
Description: as §2, §3

BAZ2A PHD D1688N/E1689Q = molecular target: T7, BAZ2A PHD D1688N/E1689Q (Homo sapiens, UniProt Q9UIF9, D1688N/E1689Q); experiment: ITC, H3 10-mer into BAZ2A PHD D1688N/E1689Q double mutant; conditions: ITC 25°C, triplicate, mean ± s.e.m.; N fixed to 1 in fit; SEM
T7 construct: Mutations were introduced into BAZ2A/B PHD fingers by polymerase chain reaction (PCR) amplification of the original construct; made in house
T7 sequence (Q9UIF9 1676-1726 D1688N/E1689Q limits assumed): T1 sequence (Q9UIF9 1676-1726 limits assumed) with D13N, E14Q
Description: as §2, §3

[1] = ITC, 25°C, 20 mM HEPES pH 8, 150 mM NaCl, 0.5 mM TCEP, peptide 1.5–3 mM into protein 80–120 µM, single-site fit, error from fit (Table 2), read-out: KD
[2] = KD, ITC, 25°C, 20 mM HEPES pH 8, 150 mM NaCl, 0.5 mM TCEP, peptide 1.5–3 mM into protein 80–120 µM, single-site fit, error from fit (Table 2)

Compound: ARTGGTARKS-NH2 [ARTGGTARKS]
- Kd (BAZ2A PHD; [1]): 143 ± 7 µM
- Kd (BAZ2B PHD; [1]): 166 ± 8 µM

Compound: ARAKQTARKS-NH2 [ARAKQTARKS]
- KD (BAZ2A PHD; ITC, 25°C, 20 mM HEPES pH 8, 150 mM NaCl, 0.5 mM TCEP, peptide 1.5–3 mM into protein 80–120 µM, single-site fit, error from fit (Table 2)): No binding
- effect on binding, in words (BAZ2A PHD; ITC): abolished binding
- Kd (BAZ2B PHD; [1]): > 5000 µM
- effect on binding, in words (BAZ2B PHD; ITC): abolished binding

Compound: C[C@H](N)C(=O)N[C@@H](CCCNC(=N)N)C(=O)N[C@H](C(=O)N[C@@H](CCCCN)C(N)=O)[C@@H](C)O [ARTK] (H-ARTK-NH2)
- Kd (BAZ2A PHD; [1]): 100 ± 4 µM

Compound: C[C@H](N)C(=O)N[C@@H](CCCNC(=N)N)C(=O)N[C@H](C(=O)N[C@@H](C)C(=O)N[C@@H](CCC(N)=O)C(=O)N[C@H](C(=O)N[C@@H](C)C(=O)N[C@@H](CCCNC(=N)N)C(=O)N[C@@H](CCCCN)C(=O)N[C@@H](CO)C(N)=O)[C@@H](C)O)[C@@H](C)O [ARTAQTARKS]
- Kd (BAZ2A PHD; [1]): 42 ± 2 µM
- Kd (BAZ2B PHD; [1]): 8.5 ± 0.2 µM

Compound: C[C@H](N)C(=O)N[C@@H](CCCNC(=N)N)C(=O)N[C@H](C(=O)N[C@@H](CCCCN)C(=O)N[C@@H](CCC(N)=O)C(N)=O)[C@@H](C)O [ARTKQ]
- Kd (BAZ2A PHD; [1]): 210 ± 30 µM
- Kd (BAZ2B PHD; [1]): 190 ± 25 µM

Compound: C[C@H](N)C(=O)N[C@@H](CCCNC(=N)N)C(=O)N[C@H](C(=O)N[C@@H](CCCCN)C(=O)N[C@@H](C)C(=O)N[C@H](C(=O)N[C@@H](C)C(=O)N[C@@H](CCCNC(=N)N)C(=O)N[C@@H](CCCCN)C(=O)N[C@@H](CO)C(N)=O)[C@@H](C)O)[C@@H](C)O [ARTKATARKS]
- Kd (BAZ2A PHD; [1]): 9.3 ± 0.2 µM
- Kd (BAZ2B PHD; [1]): 7 ± 0.2 µM

Compound: C[C@H](N)C(=O)N[C@@H](CCCNC(=N)N)C(=O)N[C@H](C(=O)N[C@@H](CCCCN)C(=O)N[C@@H](CCC(N)=O)C(=O)N[C@@H](C)C(=O)N[C@@H](C)C(=O)N[C@@H](CCCNC(=N)N)C(=O)N[C@@H](CCCCN)C(=O)N[C@@H](CO)C(N)=O)[C@@H](C)O [ARTKQAARKS]
- Kd (BAZ2A PHD; [1]): 55 ± 2 µM
- Kd (BAZ2B PHD; [1]): 44.6 ± 0.8 µM

Compound: C[C@H](N)C(=O)N[C@@H](CCCNC(=N)N)C(=O)N[C@H](C(=O)N[C@@H](CCCCN)C(=O)N[C@@H](CCC(N)=O)C(=O)N[C@H](C(=O)N[C@@H](C)C(=O)N[C@@H](CCCNC(=N)N)C(=O)N[C@@H](CCCCN)C(=O)N[C@@H](CO)C(N)=O)[C@@H](C)O)[C@@H](C)O [ARTKQTARKS]
- Kd (BAZ2B PHD E1944Q): 660 ± 60 µM
- Kd (BAZ2A PHD E1689Q): 83 ± 7 µM
- Kd (BAZ2A PHD E1689K): 116 ± 6 µM
- Kd (BAZ2A PHD; KD, BAZ2A PHD wt, ITC 25°C, triplicate, mean ± s.e.m. (Table 3), SEM): 48 ± 2 µM
- Kd (BAZ2A PHD; [2]): 51 ± 2 µM
- KD (BAZ2B PHD E1944K): completely abrogated binding
- Kd (BAZ2B PHD E1944K): > 1000 µM
- Kd (BAZ2A PHD D1688N/E1689Q): 810 ± 50 µM
- Kd (BAZ2B PHD; KD, BAZ2B PHD wt, ITC 25°C, triplicate, mean ± s.e.m. (Table 3), SEM): 47 ± 2 µM
- Kd (BAZ2B PHD; [2]): 40 ± 0.5 µM

Compound: C[C@H](N)C(=O)N[C@@H](CCCNC(=N)N)C(=O)N[C@H](C(=O)N[C@@H](C)C(N)=O)[C@@H](C)O [ARTA] (H-ARTA-NH2)
- Kd (BAZ2A PHD; [1]): 56 ± 2 µM

Compound: AATKQTARKS-NH2 [AATKQTARKS]
- Kd (BAZ2A PHD; [1]): > 1000 µM
- effect on binding, in words (BAZ2A PHD; ITC): abolished binding
- Kd (BAZ2B PHD; [1]): > 1000 µM
- effect on binding, in words (BAZ2B PHD; ITC): abolished binding

Compound: ARTAATARKS-NH2 [ARTAATARKS]
- Kd (BAZ2A PHD; [1]): 12.1 ± 0.3 µM
- Kd (BAZ2B PHD; [1]): 2.6 ± 0.1 µM
